The values below come from patent US12637462B2, “Integrin inhibitor and uses thereof” (Pliant Therapeutics, Inc., priority 2020, dated 2026).

The nature of data set [1]: Approximate solubility at RT by stepwise solvent addition. Format: physicochemical. The protocol: The approximate solubility of (S)-4-((2-methoxyethyl)(4-(5,6,7,8-tetrahydro-1,8-naphthyridin-2-yl)butyl)amino)-2-(quinazolin-4-ylamino)butanoic acid was determined at RT. Approximately 2 mg of solids were added into a 3-mL glass vial. Different solvents were then added stepwise (50-50-200-700 μL for each step) into the vials and stirred until the solids were dissolved or a total volume of 1 mL was reached.
The approximate solubility of Form I was determined at RT. Approximately 2 mg of solids were added into 3-mL glass vials. Different solvents were then added stepwise (50-50-200-700 μL for each step) into the vials until the solids were dissolved or a total volume of 1 mL was reached.

Data set [2] concerns the target recombinant human integrin αvβ6 (Homo sapiens, UniProt P06756+P18564). Description: Solid phase integrin αvβ6 binding assay. Conditions: TGFβ1 LAP binding to coated integrin, four-parameter logistic regression; read-out: IC50 for αvβ6 integrin inhibition. The method, then:
Microplates were coated with recombinant human integrin αvβ6 (2 μg/mL) in PBS (100 μL/well 25° C., overnight). The coating solution was removed, washed with wash buffer (0.05% Tween 20; 0.5 mM MnCl2; in 1×TBS). The plate was blocked with 200 μL/well of Block Buffer (1% BSA; 5% sucrose; 0.5 mM MnCl2; in 1×TBS) at 37° C. for 2 h. Dilutions of testing compounds and recombinant TGFβ1 LAP (0.67 μg/mL) in binding buffer (0.05% BSA; 2.5% sucrose; 0.5 mM MnCl2; in 1×TBS) were added. The plate was incubated for 2 hours at 25° C., washed, and incubated for 1 hour with Biotin-Anti-hLAP. Bound antibody was detected by peroxidase-conjugated streptavidin. The IC50 values for testing compounds were calculated by a four-parameter logistic regression. The IC50 value obtained for αvβ6 integrin inhibition for (S)-4-((2-methoxyethyl)(4-(5,6,7,8-tetrahydro-1,8-naphthyridin-2-yl)butyl)amino)-2-(quinazolin-4-ylamino)butanoic acid was <50 nM.

A short description of data set [3]: Dynamic vapor sorption (DVS). Conditions: 4.5 g scale batch. Format: physicochemical. The method, then:
DVS was measured via a SMS (Surface Measurement Systems) DVS Intrinsic. The relative humidity at 25° C. were calibrated against the deliquescence point of LiCl, Mg(NO3)2 and KCl.
Form I on 4.5 g scale was obtained via slurrying 4.5 g amorphous freeform of (S)-4-((2-methoxyethyl)(4-(5,6,7,8-tetrahydro-1,8-naphthyridin-2-yl)butyl)amino)-2-(quinazolin-4-ylamino)butanoic acid and an equimolar amount of 85% phosphoric acid (1.05 g) in anhydrous EtOH (≥99.7%) (112 mL) at RT and seeded with around 1 wt % Form I seed. The product was analyzed by XRPD, DSC, TGA, DVS, ^1H NMR, and HPLC. […] Based on HPLC/IC analysis, the molar ratio of API:phosphoric acid was 1:1.

A short description of data set [4]: Heating experiment, solid form checked by XRPD. Format: physicochemical. Conditions: for solid form after heating: after heating to 150° C.

Converted amounts (≈) assume the structure as drawn. Like-named read-outs stand apart in the source and are kept apart here. A value given as a limit tells only on which side of the number the result lay.

Chain of recombinant human integrin αvβ6 (P06756 31-992 limits assumed): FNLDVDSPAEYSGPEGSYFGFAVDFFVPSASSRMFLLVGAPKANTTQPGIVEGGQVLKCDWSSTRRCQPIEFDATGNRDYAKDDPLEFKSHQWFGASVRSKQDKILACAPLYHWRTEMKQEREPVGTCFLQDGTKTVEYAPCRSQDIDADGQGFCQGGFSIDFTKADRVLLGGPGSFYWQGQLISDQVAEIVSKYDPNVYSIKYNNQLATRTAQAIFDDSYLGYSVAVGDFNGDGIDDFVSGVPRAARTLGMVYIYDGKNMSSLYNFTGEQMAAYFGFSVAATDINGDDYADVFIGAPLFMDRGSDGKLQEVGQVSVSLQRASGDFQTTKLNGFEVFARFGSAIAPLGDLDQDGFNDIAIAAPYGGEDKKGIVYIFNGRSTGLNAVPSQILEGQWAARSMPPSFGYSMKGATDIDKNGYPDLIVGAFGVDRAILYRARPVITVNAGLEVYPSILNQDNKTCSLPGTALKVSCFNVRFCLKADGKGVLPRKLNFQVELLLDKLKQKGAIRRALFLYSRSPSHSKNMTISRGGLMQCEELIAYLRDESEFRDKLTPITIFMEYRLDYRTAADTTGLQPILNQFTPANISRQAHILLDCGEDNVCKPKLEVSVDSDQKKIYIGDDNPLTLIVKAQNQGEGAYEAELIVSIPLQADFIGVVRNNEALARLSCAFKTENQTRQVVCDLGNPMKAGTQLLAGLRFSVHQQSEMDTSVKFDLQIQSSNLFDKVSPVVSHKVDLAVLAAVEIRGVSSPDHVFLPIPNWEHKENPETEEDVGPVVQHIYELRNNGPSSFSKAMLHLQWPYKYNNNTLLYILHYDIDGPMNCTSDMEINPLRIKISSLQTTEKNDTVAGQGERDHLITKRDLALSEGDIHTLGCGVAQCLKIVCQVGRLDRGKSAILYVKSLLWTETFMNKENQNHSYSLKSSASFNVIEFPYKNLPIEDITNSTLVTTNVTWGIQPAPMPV
Chain of recombinant human integrin αvβ6 (P18564 22-707 limits assumed): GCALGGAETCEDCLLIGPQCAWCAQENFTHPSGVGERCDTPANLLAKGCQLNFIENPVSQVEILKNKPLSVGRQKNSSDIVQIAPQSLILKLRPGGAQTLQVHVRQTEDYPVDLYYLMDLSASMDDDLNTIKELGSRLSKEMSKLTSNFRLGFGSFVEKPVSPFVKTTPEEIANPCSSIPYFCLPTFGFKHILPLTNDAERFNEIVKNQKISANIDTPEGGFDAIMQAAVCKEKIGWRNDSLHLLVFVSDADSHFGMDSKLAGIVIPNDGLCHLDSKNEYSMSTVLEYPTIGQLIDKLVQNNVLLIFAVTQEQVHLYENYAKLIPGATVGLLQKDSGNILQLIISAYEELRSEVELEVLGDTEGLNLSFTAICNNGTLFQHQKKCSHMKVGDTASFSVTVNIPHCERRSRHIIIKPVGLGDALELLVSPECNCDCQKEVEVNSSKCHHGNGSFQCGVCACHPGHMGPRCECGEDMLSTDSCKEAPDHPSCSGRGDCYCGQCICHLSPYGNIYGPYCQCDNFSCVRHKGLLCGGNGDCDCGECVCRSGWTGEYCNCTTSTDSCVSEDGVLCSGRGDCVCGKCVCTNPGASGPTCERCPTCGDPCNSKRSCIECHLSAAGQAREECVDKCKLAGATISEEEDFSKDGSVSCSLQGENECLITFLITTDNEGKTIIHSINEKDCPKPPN

Broadly, the Solubility is the concentration that dissolves in the medium under given conditions. Turning to `COCCN(CCCCc1ccc2c(n1)NCCC2)CC[C@H](Nc1ncnc2ccccc12)C(=O)O` [(S)-4-((2-methoxyethyl)(4-(5,6,7,8-tetrahydro-1,8-naphthyrid] [(S)-4-((2-methoxyethyl)(4-(5,6,7,8-tetrahydro-1,8-naphthyridin-2-yl)butyl)amino)-2-(quinazolin-4-ylamino)butanoic acid], the Solubility result in data set [1] (1,4-Dioxane) is recorded as “S > 42.0 mg/mL”; in data set [1] (DCM) it was “S > 38.0 mg/mL”; in data set [1] (DMSO), “S > 42.0 mg/mL”; in data set [1] (EtOH), “S > 44.0 mg/mL”; in data set [1] (IPA), “S > 48.0 mg/mL”; in data set [1] (THF) it was “S > 32.0 mg/mL”.

What is called IC50 is the point on the concentration scale where inhibition reaches its midpoint. As to `COCCN(CCCCc1ccc2c(n1)NCCC2)CC[C@H](Nc1ncnc2ccccc12)C(=O)O` [(S)-4-((2-methoxyethyl)(4-(5,6,7,8-tetrahydro-1,8-naphthyridin-2-yl)butyl)amino)-2-(quinazolin-4-ylamino)butanoic acid], the IC50 in data set [2] was below 50 nM. Besides, the Solubility is 1900 to 6300 µg/mL (≈ 3.86 to 12.8 mM) in data set [1] (ACN, organic solvent or mixture, thermodynamic from solid, ACN, read-out: Solubility); 2600 to 8700 µg/mL (≈ 5.28 to 17.7 mM) in data set [1] (CPME, organic solvent or mixture, thermodynamic from solid, CPME, read-out: Solubility); 2100 to 7000 µg/mL (≈ 4.26 to 14.2 mM) in data set [1] (EtOAc, organic solvent or mixture, thermodynamic from solid, EtOAc, read-out: Solubility); 2300 to 7700 µg/mL (≈ 4.67 to 15.6 mM) in data set [1] (IPAc, organic solvent or mixture, thermodynamic from solid, IPAc, read-out: Solubility); 2500 to 8300 µg/mL (≈ 5.07 to 16.8 mM) in data set [1] (MIBK, organic solvent or mixture, thermodynamic from solid, MIBK, read-out: Solubility); below 2000 µg/mL in data set [1] (MTBE, organic solvent or mixture, thermodynamic from solid, MTBE, read-out: Solubility). The Solubility was above 52000 µg/mL in data set [1] (MeOH, organic solvent or mixture, thermodynamic from solid, MeOH, read-out: Solubility); 1900 to 6300 µg/mL (≈ 3.86 to 12.8 mM) in data set [1] (Toluene, organic solvent or mixture, thermodynamic from solid, Toluene, read-out: Solubility); below 2200 µg/mL in data set [1] (n-Heptane, organic solvent or mixture, thermodynamic from solid, n-Heptane, read-out: Solubility).

As to `COCCN(CCCCc1ccc2c(n1)NCCC2)CC[C@H](Nc1ncnc2ccccc12)C(=O)O` [Form I, (S)-4-((2-methoxyethyl)(4-(5,6,7,8-tetrahydro-1,8-naphthyridin-2-yl)butyl)amino)-2-(quinazolin-4-ylamino)butanoic acid], the Solubility result was “S < 1.7 mg/mL” in data set [1] (1,4-Dioxane); “S < 2.1 mg/mL” in data set [1] (2-MeTHF); “S < 1.6 mg/mL” in data set [1] (ACN); “S < 1.9 mg/mL” in data set [1] (Acetone); “S < 1.9 mg/mL” in data set [1] (CPME); “S < 2.8 mg/mL” in data set [1] (DCM). Besides, the Solubility result in data set [1] (EtOAc) was “S < 1.7 mg/mL”; in data set [1] (H2O), “S > 56.0 mg/mL”; in data set [1] (IPA) it was “S < 2.2 mg/mL”; in data set [1] (IPAc), “S < 2.6 mg/mL”; in data set [1] (MEK), “S < 2.4 mg/mL”; in data set [1] (MIBK) it was “S < 2.8 mg/mL”. Besides, the Solubility entry in data set [1] (MTBE) is recorded as “S < 2.1 mg/mL”; in data set [1] (MeOH), “S > 52.0 mg/mL”; in data set [1] (THF), “S < 1.6 mg/mL”; in data set [1] (Toluene), “S < 2.2 mg/mL”; in data set [1] (n-Heptane) it was “S < 2.1 mg/mL”. This compound had a water absorption in data set [3] (25° C./80% RH) of 16.4%. Besides, the “state after the DVS test” value in data set [3] (after DVS test) is “deliquescent”. The “form change after heating” value in data set [4] (after heating to 110° C.) is given as “No form changes”. For the same compound, in data set [4], the “solid form after heating” value is on record as “amorphous”.

Regarding `COCCN(CCCCc1ccc2c(n1)NCCC2)CC[C@H](Nc1ncnc2ccccc12)C(=O)O` [Form II, (S)-4-((2-methoxyethyl)(4-(5,6,7,8-tetrahydro-1,8-naphthyridin-2-yl)butyl)amino)-2-(quinazolin-4-ylamino)butanoic acid], the “solid form after heating” value in data set [4] was “amorphous”.
